The text below walks through data of the NIST ThermoML archive (doi:10.1016/j.jct.2017.12.012).

± gives the expanded uncertainty stated by the source.

A short description of this series: activity coefficient (dimensionless); of the first substance listed, at infinite dilution; xn = mol fraction of the nth substance listed. As to conditions: 101.33 kPa, Liquid, Chromatography, x1 = 0.

With `Cc1ccccc1C` [1,2-dimethylbenzene] + CCCCCCCCn1cc[n+](C)c1C.O=S(=O)([N-]S(=O)(=O)C(F)(F)F)C(F)(F)F, the activity coefficient reads like this: (313.15 K) 1.15 ± 0.12; (323.15 K) 1.08 ± 0.11; (333.15 K) 1.02 ± 0.1; (343.15 K) 0.96 ± 0.1; (353.15 K) 0.93 ± 0.09.
The corresponding values for `CCCCCC` [hexane] + CCCCCCCCn1cc[n+](C)c1C.O=S(=O)([N-]S(=O)(=O)C(F)(F)F)C(F)(F)F are 7.89 ± 0.83, 6.52 ± 0.69, 5.57 ± 0.59, 4.87 ± 0.51 and 4.22 ± 0.44.
Taken in the same sequence, the figures for `C=CCCCC` [hex-1-ene] + CCCCCCCCn1cc[n+](C)c1C.O=S(=O)([N-]S(=O)(=O)C(F)(F)F)C(F)(F)F were 4.99 ± 0.52, 4.26 ± 0.45, 3.65 ± 0.38, 3.18 ± 0.33 and 2.81 ± 0.3.
In the case of `c1ccccc1` [benzene] + CCCCCCCCn1cc[n+](C)c1C.O=S(=O)([N-]S(=O)(=O)C(F)(F)F)C(F)(F)F, the activity coefficient by setting is: (313.15 K) 0.81 ± 0.08; (323.15 K) 0.74 ± 0.08; (333.15 K) 0.68 ± 0.07; (343.15 K) 0.63 ± 0.07; (353.15 K) 0.59 ± 0.06.
Turning to `CC1CCCCC1` [methylcyclohexane] + CCCCCCCCn1cc[n+](C)c1C.O=S(=O)([N-]S(=O)(=O)C(F)(F)F)C(F)(F)F, the activity coefficient was determined as 5.67 ± 0.6 (313.15 K); 4.88 ± 0.51 (323.15 K); 4.25 ± 0.45 (333.15 K); 3.79 ± 0.4 (343.15 K); 3.32 ± 0.35 (353.15 K).
The corresponding values for `Cc1ccc(C)cc1` [1,4-dimethylbenzene] + CCCCCCCCn1cc[n+](C)c1C.O=S(=O)([N-]S(=O)(=O)C(F)(F)F)C(F)(F)F are 1.17 ± 0.12, 1.11 ± 0.11, 1.06 ± 0.11, 1 ± 0.1 and 0.95 ± 0.1.
The corresponding values for `CCCCCCCCCC` [decane] + CCCCCCCCn1cc[n+](C)c1C.O=S(=O)([N-]S(=O)(=O)C(F)(F)F)C(F)(F)F are 20.8 ± 2.2, 16.4 ± 1.7, 13.5 ± 1.4, 11.2 ± 1.2 and 9.33 ± 0.98.
Regarding `CCCCC` [pentane] + CCCCCCCCn1cc[n+](C)c1C.O=S(=O)([N-]S(=O)(=O)C(F)(F)F)C(F)(F)F, the activity coefficient reads like this: (313.15 K) 6.78 ± 0.71; (323.15 K) 5.63 ± 0.59; (333.15 K) 4.81 ± 0.51; (343.15 K) 4.24 ± 0.45; (353.15 K) 3.66 ± 0.38.
Taken in the same sequence, the figures for `C1CCCCC1` [cyclohexane] + CCCCCCCCn1cc[n+](C)c1C.O=S(=O)([N-]S(=O)(=O)C(F)(F)F)C(F)(F)F were 4.76 ± 0.5, 4.16 ± 0.44, 3.75 ± 0.39, 3.37 ± 0.35 and 3.12 ± 0.33.
The corresponding values for `CCc1ccccc1` [ethylbenzene] + CCCCCCCCn1cc[n+](C)c1C.O=S(=O)([N-]S(=O)(=O)C(F)(F)F)C(F)(F)F are 1.37 ± 0.14, 1.29 ± 0.13, 1.2 ± 0.12, 1.14 ± 0.12 and 1.08 ± 0.11.
Taken in the same sequence, the figures for `CO` [methanol] + CCCCCCCCn1cc[n+](C)c1C.O=S(=O)([N-]S(=O)(=O)C(F)(F)F)C(F)(F)F were 1.37 ± 0.14, 1.26 ± 0.13, 1.14 ± 0.12, 1.05 ± 0.11 and 0.96 ± 0.1.
In the case of `CCCCCO` [pentan-1-ol] + CCCCCCCCn1cc[n+](C)c1C.O=S(=O)([N-]S(=O)(=O)C(F)(F)F)C(F)(F)F, the activity coefficient worked out at 2.61 ± 0.27 (313.15 K); 2.22 ± 0.23 (323.15 K); 1.92 ± 0.2 (333.15 K); 1.62 ± 0.17 (343.15 K); 1.41 ± 0.15 (353.15 K).
With `CCCCCCCC` [octane] + CCCCCCCCn1cc[n+](C)c1C.O=S(=O)([N-]S(=O)(=O)C(F)(F)F)C(F)(F)F, the activity coefficient is, setting by setting: (313.15 K) 11.1 ± 1.2; (323.15 K) 9.5 ± 1; (333.15 K) 8.12 ± 0.85; (343.15 K) 7.17 ± 0.75; (353.15 K) 6.32 ± 0.66.
Taken in the same sequence, the figures for `CCCCCCCCC` [nonane] + CCCCCCCCn1cc[n+](C)c1C.O=S(=O)([N-]S(=O)(=O)C(F)(F)F)C(F)(F)F were 14.4 ± 1.5, 12.1 ± 1.3, 10.4 ± 1.1, 9.04 ± 0.95 and 8.04 ± 0.85.
Taken in the same sequence, the figures for `CCC(C)O` (stereo not given) [butan-2-ol] + CCCCCCCCn1cc[n+](C)c1C.O=S(=O)([N-]S(=O)(=O)C(F)(F)F)C(F)(F)F were 2.03 ± 0.21, 1.74 ± 0.18, 1.5 ± 0.16, 1.29 ± 0.13 and 1.11 ± 0.11.
On to `ClC(Cl)Cl` [trichloromethane] + CCCCCCCCn1cc[n+](C)c1C.O=S(=O)([N-]S(=O)(=O)C(F)(F)F)C(F)(F)F, for which the activity coefficient runs as follows: (313.15 K) 0.77 ± 0.08; (323.15 K) 0.7 ± 0.07; (333.15 K) 0.65 ± 0.07; (343.15 K) 0.6 ± 0.06; (353.15 K) 0.54 ± 0.06.
The corresponding values for `C1CCOC1` [tetrahydrofuran] + CCCCCCCCn1cc[n+](C)c1C.O=S(=O)([N-]S(=O)(=O)C(F)(F)F)C(F)(F)F are 0.54 ± 0.06, 0.48 ± 0.05, 0.44 ± 0.05, 0.4 ± 0.05 and 0.37 ± 0.04.
The corresponding values for `C1=CCCCC1` [cyclohexene] + CCCCCCCCn1cc[n+](C)c1C.O=S(=O)([N-]S(=O)(=O)C(F)(F)F)C(F)(F)F are 3.04 ± 0.32, 2.77 ± 0.29, 2.5 ± 0.26, 2.28 ± 0.24 and 2.1 ± 0.22.
Taken in the same sequence, the figures for `CCCO` [propan-1-ol] + CCCCCCCCn1cc[n+](C)c1C.O=S(=O)([N-]S(=O)(=O)C(F)(F)F)C(F)(F)F were 1.94 ± 0.2, 1.67 ± 0.17, 1.42 ± 0.15, 1.22 ± 0.13 and 1.05 ± 0.11.
With `CC(C)CCO` [3-methylbutan-1-ol] + CCCCCCCCn1cc[n+](C)c1C.O=S(=O)([N-]S(=O)(=O)C(F)(F)F)C(F)(F)F, the activity coefficient came to 2.46 ± 0.26 (313.15 K); 2.11 ± 0.22 (323.15 K); 1.79 ± 0.19 (333.15 K); 1.55 ± 0.16 (343.15 K); 1.32 ± 0.14 (353.15 K).
With `C1COCCO1` [1,4-dioxane] + CCCCCCCCn1cc[n+](C)c1C.O=S(=O)([N-]S(=O)(=O)C(F)(F)F)C(F)(F)F, the activity coefficient reads like this: (313.15 K) 0.64 ± 0.07; (323.15 K) 0.56 ± 0.06; (333.15 K) 0.51 ± 0.06; (343.15 K) 0.47 ± 0.05; (353.15 K) 0.42 ± 0.05.
